Data reported in patent US20220193095A9, “PHARMACEUTICAL COMPOSITIONS” (Shenzhen Pharmacin Co., Ltd., priority 2019, published 2022).

Columns and labels:
[1] = Solubility of abiraterone acetate in fatty acids; conditions: 25° C.
[2] = Solubility of abiraterone acetate in other media
[3] = cited from earlier work
[4] = Solubility of abiraterone acetate in lipids (glycerides); conditions: 25° C.
[5] = Solubility of abiraterone acetate in aqueous media
[6] = Solubility of abiraterone acetate in co-solvents
[7] = cited from earlier work; remark: listed apart in the source
[8] = Solubility of abiraterone acetate in surfactants

With CC(=O)O[C@H]1CC[C@@]2(C)C(=CC[C@@H]3[C@@H]2CC[C@]2(C)C(c4cccnc4)=CC[C@@H]32)C1 [Abiraterone acetate] as the compound, how does the Solubility ([1]; Acetic acid) read?
Its Solubility is 2386.1 mg/mL.

What about the Solubility ([1]; Butyric acid) of the same compound?
Its Solubility is 1399.3 mg/mL.

What about the Solubility ([1]; Heptanoic acid) of the same compound?
The Solubility was 1325.9 mg/mL.

What about the Solubility ([1]; Linoleic acid) of the same compound?
The Solubility was 182.9 mg/mL.

And the Solubility ([1]; Nonanoic acid)?
Its Solubility is 1084.1 mg/mL.

And the Solubility ([1]; Oleic acid)?
The Solubility was 239.0 mg/mL.

What about the Solubility ([1]; Propionic acid) of the same compound?
The Solubility was 2209.5 mg/mL.

And the Solubility ([1]; Valeric acid)?
The Solubility was 1104.8 mg/mL.

What about the Solubility ([1]; n-caproic acid) of the same compound?
The Solubility was 1572.6 mg/mL.

And the Solubility ([1]; n-caprylic acid)?
The Solubility was 1214.7 mg/mL.

And the Solubility ([2]; 1-octanol, 25° C.)?
The Solubility was 114.0 mg/mL.

And the Solubility ([2]; Azone (Laurocapram), 25° C.)?
Its Solubility is 66.0 mg/mL.

And the Solubility ([2]; Capryl monoglyceride, 25° C. (Table 11))?
Its Solubility is 139.8 mg/mL.

And the Solubility ([2]; Glycerol mono/di-caprylocaprate, 25° C. (Table 11))?
The Solubility was 147.0 mg/mL.

And the Solubility ([2]; Glyceryl monooleate, 25° C. (Table 11))?
The Solubility was 37.1 mg/mL.

And the Solubility ([2]; Isopropyl myristate, 25° C. (Table 11))?
Its Solubility is 41.0 mg/mL.

What about the Solubility ([2]; Polyglycerol fatty acid ester, 25° C. (Table 11)) of the same compound?
The Solubility was 10.0 mg/mL.

What about the Solubility ([2]; Propylene Glycol Monocaprylate, 25° C. (Table 11)) of the same compound?
The Solubility was 160.0 mg/mL.

And the “Log P” value [3]?
The value was 5.12.

What about the Solubility ([4]; Capryl monoglyceride) of the same compound?
The Solubility was 139.8 mg/mL.

What about the Solubility ([4]; Castor oil) of the same compound?
Its Solubility is 59.6 mg/mL.

What about the Solubility ([4]; Coconut oil) of the same compound?
Its Solubility is 30.6 mg/mL.

What about the Solubility ([4]; Corn oil) of the same compound?
Its Solubility is 31.4 mg/mL.

And the Solubility ([4]; Glycerol mono/di-caprylocaprate)?
Its Solubility is 147.0 mg/mL.

And the Solubility ([4]; Glyceryl monooleate)?
Its Solubility is 37.1 mg/mL.

What about the Solubility ([4]; Isopropyl myristate) of the same compound?
Its Solubility is 41.0 mg/mL.

And the Solubility ([4]; Olive oil)?
Its Solubility is 27.3 mg/mL.

And the Solubility ([4]; Polyglycerol fatty acid ester)?
The Solubility was 10.0 mg/mL.

What about the Solubility ([4]; Propylene Glycol Monocaprylate) of the same compound?
Its Solubility is 160.0 mg/mL.

And the Solubility ([4]; Soybean oil)?
Its Solubility is 28.1 mg/mL.

What about the Solubility ([5]; FDA Dissolution medium: 0.25% SLS in 56.5 mM phosphate buffer, pH 4.5, 25° C.) of the same compound?
Its Solubility is 700 µg/mL.

And the Solubility ([5]; pH 3.0 buffer, 25° C.)?
The Solubility was <1 µg/mL.

And the Solubility ([5]; pH 4.0 buffer, 25° C.)?
The Solubility was <1 µg/mL.

What about the Solubility ([5]; pH 5.0 buffer, 25° C.) of the same compound?
The Solubility was <1 µg/mL.

What about the Solubility ([5]; pH 6.0 buffer, 25° C.) of the same compound?
The Solubility was <1 µg/mL.

And the Solubility ([5]; pH 7.4 buffer, 25° C.)?
Its Solubility is <1 µg/mL.

And the Solubility ([6]; Ethanol, 25° C.)?
The Solubility was 61.1 mg/mL.

And the Solubility ([6]; Glycerol, 25° C.)?
Its Solubility is 5.0 mg/mL.

What about the Solubility ([6]; PEG400, 25° C.) of the same compound?
Its Solubility is 16.5 mg/mL.

What about the Solubility ([6]; Propylene glycol, 25° C.) of the same compound?
Its Solubility is 5.0 mg/mL.

And the Solubility ([6]; Transcutol, 25° C.)?
Its Solubility is 99.5 mg/mL.

What about the solubility in water [7] of the same compound?
Its solubility in water is “practically insoluble in water”.

What about the Solubility ([8]; Labrasol, 25° C.) of the same compound?
Its Solubility is 35.4 mg/mL.

And the Solubility ([8]; Polyethylene Glycol Oleate, 25° C.)?
Its Solubility is 52.7 mg/mL.

What about the Solubility ([8]; Polyoxyethylene 8 stearate, 25° C.) of the same compound?
Its Solubility is 18.1 mg/mL.

What about the Solubility ([8]; Polyoxyethylene hydrogenated castor oil, 25° C.) of the same compound?
Its Solubility is 10.1 mg/mL.

What about the Solubility ([8]; Tween 80, 25° C.) of the same compound?
Its Solubility is 7.5 mg/mL.
